Data: the NIST ThermoML archive (doi:10.1021/je400250u)

Columns and labels:
[1] = xn = mol fraction of the nth substance listed; settings: 100 kPa, Liquid; for viscosity: Capillary tube (Ostwald / Ubbelohde) method; for mass density: Vibrating tube method
[2] = refractive index (Na D-line) (dimensionless); xn = mol fraction of the nth substance listed; settings: 100 kPa, Liquid, Standard Abbe refractometry

C1CC[C@H]2CCCC[C@H]2C1 [cis-decahydronaphthalene] + CCCCCCCCC
Settings	mass density, [1] [kg/m3]	refractive index, [2]	viscosity, [1] [mPa·s]
293.15 K, x1 = 0.1031	734.59	–	0.788
293.15 K, x1 = 0.2033	751.1	–	0.899
293.15 K, x1 = 0.2973	766.96	–	1.02
293.15 K, x1 = 0.3997	784.54	–	1.139
293.15 K, x1 = 0.4978	801.87	–	1.268
293.15 K, x1 = 0.6044	821.02	–	1.507
293.15 K, x1 = 0.6961	837.96	–	1.769
293.15 K, x1 = 0.8014	857.86	–	2.111
293.15 K, x1 = 0.8976	876.48	–	2.526
293.15 K, x1 = 1	896.85	–	3.355
298.15 K, x1 = 0.1031	730.75	1.4095	0.737
298.15 K, x1 = 0.2033	747.26	1.4168	0.826
298.15 K, x1 = 0.2973	763.14	1.4232	0.956
298.15 K, x1 = 0.3997	780.74	1.4311	1.064
298.15 K, x1 = 0.4978	798.1	1.438	1.171
298.15 K, x1 = 0.6044	817.23	1.4459	1.385
298.15 K, x1 = 0.6961	834.18	1.4533	1.624
298.15 K, x1 = 0.8014	854.08	1.4613	1.919
298.15 K, x1 = 0.8976	872.72	1.4688	2.288
298.15 K, x1 = 1	893.06	1.4776	3.011
303.15 K, x1 = 0.1031	726.86	–	0.695
303.15 K, x1 = 0.2033	743.4	–	0.786
303.15 K, x1 = 0.2973	759.3	–	0.883
303.15 K, x1 = 0.3997	776.91	–	0.986
303.15 K, x1 = 0.4978	794.29	–	1.086
303.15 K, x1 = 0.6044	813.43	–	1.276
303.15 K, x1 = 0.6961	830.38	–	1.49
303.15 K, x1 = 0.8014	850.29	–	1.748
303.15 K, x1 = 0.8976	868.92	–	2.081
303.15 K, x1 = 1	889.26	–	2.718
308.15 K, x1 = 0.1031	722.96	1.4047	0.655
308.15 K, x1 = 0.2033	739.52	1.4121	0.739
308.15 K, x1 = 0.2973	755.44	1.4189	0.826
308.15 K, x1 = 0.3997	773.07	1.4269	0.917
308.15 K, x1 = 0.4978	790.46	1.4336	1.01
308.15 K, x1 = 0.6044	809.61	1.4425	1.182
308.15 K, x1 = 0.6961	826.58	1.4492	1.372
308.15 K, x1 = 0.8014	846.49	1.4572	1.606
308.15 K, x1 = 0.8976	865.13	1.4654	1.891
308.15 K, x1 = 1	885.46	1.4736	2.47
313.15 K, x1 = 0.1031	719.05	–	0.617
313.15 K, x1 = 0.2033	735.63	–	0.698
313.15 K, x1 = 0.2973	751.56	–	0.77
313.15 K, x1 = 0.3997	769.21	–	0.852
313.15 K, x1 = 0.4978	786.62	–	0.943
313.15 K, x1 = 0.6044	805.79	–	1.099
313.15 K, x1 = 0.6961	822.76	–	1.26
313.15 K, x1 = 0.8014	842.68	–	1.476
313.15 K, x1 = 0.8976	861.33	–	1.732
313.15 K, x1 = 1	881.65	–	2.252
318.15 K, x1 = 0.1031	715.12	1.4002	0.588
318.15 K, x1 = 0.2033	731.73	1.4077	0.662
318.15 K, x1 = 0.2973	747.68	1.4145	0.728
318.15 K, x1 = 0.3997	765.35	1.4223	0.802
318.15 K, x1 = 0.4978	782.77	1.4294	0.89
318.15 K, x1 = 0.6044	801.95	1.4379	1.033
318.15 K, x1 = 0.6961	818.94	1.4452	1.174
318.15 K, x1 = 0.8014	838.88	1.4533	1.374
318.15 K, x1 = 0.8976	857.52	1.4616	1.604
318.15 K, x1 = 1	877.85	1.4696	2.079
323.15 K, x1 = 0.1031	711.17	–	0.559
323.15 K, x1 = 0.2033	727.8	–	0.626
323.15 K, x1 = 0.2973	743.78	–	0.681
323.15 K, x1 = 0.3997	761.47	–	0.753
323.15 K, x1 = 0.4978	778.9	–	0.835
323.15 K, x1 = 0.6044	798.11	–	0.965
323.15 K, x1 = 0.6961	815.11	–	1.094
323.15 K, x1 = 0.8014	835.06	–	1.262
323.15 K, x1 = 0.8976	853.71	–	1.477
323.15 K, x1 = 1	874.05	–	1.912
